The text below walks through data of US10738056B2 (Aduro BioTech, Inc., priority 2017, dated 2020).

A value given as a limit tells only on which side of the number the result lay.

In this test the target is Human cGAS amino acids 155-522 (Homo sapiens (Human), UniProt Q8N884). As to the kind of experiment: cGAS biochemical activity assay (ATP remaining, Kinase-Glo Max luminescence). The following applies: human cGAS 155-522, ATP remaining (Kinase-Glo Max); read-out: cGAS IC50. (Kinase-Glo reads ATP consumption through a luciferase reaction.)
Chain of Human cGAS amino acids 155-522 (Q8N884 157-522): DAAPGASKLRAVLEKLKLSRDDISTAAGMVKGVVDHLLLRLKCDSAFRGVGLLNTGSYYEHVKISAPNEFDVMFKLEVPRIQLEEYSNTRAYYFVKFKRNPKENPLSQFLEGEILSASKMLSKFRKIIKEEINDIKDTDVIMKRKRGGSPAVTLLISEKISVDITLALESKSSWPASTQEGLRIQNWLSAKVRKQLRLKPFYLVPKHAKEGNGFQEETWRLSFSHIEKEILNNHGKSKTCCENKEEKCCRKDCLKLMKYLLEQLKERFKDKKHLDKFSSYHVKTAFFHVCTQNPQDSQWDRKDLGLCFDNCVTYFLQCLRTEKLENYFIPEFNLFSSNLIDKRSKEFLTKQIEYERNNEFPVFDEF
With `COCc1[nH]c2c(-c3ccccc3)c(C(F)(F)F)nn2c(=O)c1C(=O)Nc1ccccc1OC` [Compound A1042, 5-(methoxymethyl)-N-(2-methoxyphenyl)-7-oxo-3-phenyl-2-(trifluoromethyl)-4,7-dihydropyrazolo[1,5-a]pyrimidine-6-carboxamide], the IC50 was in the range of 20 to 250 µM.

With `COc1cccc2oc(-c3c(COC4CCN(C)C4=O)[nH]c4c(-c5ccccc5)c(C(F)(F)F)nn4c3=O)nc12` (stereo not shown) [Compound C1225, 6-(4-methoxybenzo[d]oxazol-2-yl)-5-(((1-methyl-2-oxopyrrolidin-3-yl)oxy)methyl)-3-phenyl-2-(trifluoromethyl)pyrazolo[1,5-a]pyrimidin-7(4H)-one], the IC50 was below 20 µM.

As for `Cc1[nH]c2c(-c3ccccc3)c(C(F)(F)F)nn2c(=O)c1C(=O)N1CCOCC1` [Compound A1004, 5-methyl-6-(morpholine-4-carbonyl)-3-phenyl-2-(trifluoromethyl)pyrazolo[1,5-a]pyrimidin-7(4H)-one], the IC50 is above 250 µM.

Consider `Cc1[nH]c2c(-c3ccccc3)c(C(F)(F)F)nn2c(=O)c1-c1nnc(C2CCNCC2)o1` [Compound D1052, 5-methyl-3-phenyl-6-(5-(piperidin-4-yl)-1,3,4-oxadiazol-2-yl)-2-(trifluoromethyl)pyrazolo[1,5-a]pyrimidin-7(4H)-one], for which the IC50 fell in the range of 20 to 250 µM.

For `COCc1nc(-c2c(C)[nH]c3c(-c4ccccc4)c(C(F)(F)F)nn3c2=O)oc1C1CCCCC1` [Compound C1158, 6-(5-cyclohexyl-4-(methoxymethyl)oxazol-2-yl)-5-methyl-3-phenyl-2-(trifluoromethyl)pyrazolo[1,5-a]pyrimidin-7(4H)-one], the IC50 is above 250 µM.

`Cc1[nH]c2c(-c3ccccc3)c(C(F)(F)F)nn2c(=O)c1-c1nnc(C2CCCCN2C(=O)OC(C)(C)C)o1` (stereo not shown) [Compound D1045, tert-butyl 2-(5-(5-methyl-7-oxo-3-phenyl-2-(trifluoromethyl)-4,7-dihydropyrazolo[1,5-a]pyrimidin-6-yl)-1,3,4-oxadiazol-2-yl)piperidine-1-carboxylate]: the IC50 is 20 to 250 µM.

Take `Cc1[nH]c2c(-c3ccccc3)c(C(F)(F)F)nn2c(=O)c1C(=O)NC1CCN(C)CC1` [Compound A1026, 5-methyl-N-(1-methylpiperidin-4-yl)-7-oxo-3-phenyl-2-(trifluoromethyl)-4,7-dihydropyrazolo[1,5-a]pyrimidine-6-carboxamide]: the IC50 lay within 20 to 250 µM.

For `Cc1[nH]c2c(-c3ccccc3)c(C(F)(F)F)nn2c(=O)c1C(=O)N[C@H]1CCN(C(=O)OC(C)(C)C)C1` [Compound A1034, tert-butyl (S)-3-(5-methyl-7-oxo-3-phenyl-2-(trifluoromethyl)-4,7-dihydropyrazolo[1,5-a]pyrimidine-6-carboxamido)pyrrolidine-1-carboxylate], the IC50 was above 250 µM.

As to `Cc1[nH]c2c(-c3ccccc3)c(C(F)(F)F)nn2c(=O)c1C(=O)Nc1cccc(NS(C)(=O)=O)c1` [Compound A1045, 5-methyl-N-(3-(methylsulfonamido)phenyl)-7-oxo-3-phenyl-2-(trifluoromethyl)-4,7-dihydropyrazolo[1,5-a]pyrimidine-6-carboxamide], the IC50 is below 20 µM.

With `COc1ccc(CN)c2oc(-c3c(C)[nH]c4c(-c5ccccc5)c(C(F)(F)F)nn4c3=O)nc12` [Compound C1191, 6-(7-(aminomethyl)-4-methoxybenzo[d]oxazol-2-yl)-5-methyl-3-phenyl-2-(trifluoromethyl)pyrazolo[1,5-a]pyrimidin-7(4H)-one], the IC50 is above 250 µM.

`Cc1[nH]c2c(-c3ccccc3)c(C(F)(F)F)nn2c(=O)c1C(=O)Nc1nn(C)cc1C#N` [Compound A1090, N-(4-cyano-1-methyl-1H-pyrazol-3-yl)-5-methyl-7-oxo-3-phenyl-2-(trifluoromethyl)-4,7-dihydropyrazolo[1,5-a]pyrimidine-6-carboxamide]: the IC50 is below 20 µM.

As to `Cc1[nH]c2c(-c3ccccc3)c(C(F)(F)F)nn2c(=O)c1C(=O)N1CCCCC1` [Compound A1011, 5-methyl-3-phenyl-6-(piperidine-1-carbonyl)-2-(trifluoromethyl)pyrazolo[1,5-a]pyrimidin-7(4H)-one], the IC50 is above 250 µM.

For the molecule `Cc1[nH]c2c(C(C)C)c(C(F)(F)F)nn2c(=O)c1Cc1ccccc1` [Compound C1268, 6-benzyl-3-isopropyl-5-methyl-2-(trifluoromethyl)pyrazolo[1,5-a]pyrimidin-7(4H)-one], the IC50 was above 250 µM.

On to `Cc1[nH]c2c(-c3ccccc3)c(C(F)(F)F)nn2c(=O)c1N1Cc2ccccc2C1=O` [Compound C1214, 5-methyl-6-(1-oxoisoindolin-2-yl)-3-phenyl-2-(trifluoromethyl)pyrazolo[1,5-a]pyrimidin-7(4H)-one], for which the 50% inhibitory concentration (IC50) was 20 to 250 µM.

On to `COc1cccc(NC(=O)c2c(C)[nH]c3c(-c4ccccc4)c(SC)nn3c2=O)c1` [Compound A1122, N-(3-methoxyphenyl)-5-methyl-2-(methylthio)-7-oxo-3-phenyl-4,7-dihydropyrazolo[1,5-a]pyrimidine-6-carboxamide], for which the IC50 was 20 to 250 µM.

For the molecule `COc1ccc(NC(=O)Cc2c(C)[nH]c3c(-c4ccccc4)c(C(F)(F)F)nn3c2=O)cc1` [Compound B1006, N-(4-methoxyphenyl)-2-(5-methyl-7-oxo-3-phenyl-2-(trifluoromethyl)-4,7-dihydropyrazolo[1,5-a]pyrimidin-6-yl)acetamide], the IC50 is 20 to 250 µM.

On to `COC1CCCCC1NC(=O)c1c(C)[nH]c2c(-c3ccccc3)c(C(F)(F)F)nn2c1=O` (single isomer, unassigned) [Compound A1085, N-(2-methoxycyclohexyl)-5-methyl-7-oxo-3-phenyl-2-(trifluoromethyl)-4,7-dihydropyrazolo[1,5-a]pyrimidine-6-carboxamide], for which the IC50 fell in the range of 20 to 250 µM.

`Cc1[nH]c2c(-c3ccccc3)c(C(F)(F)F)nn2c(=O)c1-c1cccnc1` [Compound C1003, 5-methyl-3-phenyl-6-(pyridin-3-yl)-2-(trifluoromethyl)pyrazolo[1,5-a]pyrimidin-7(4H)-one]: the IC50 lay in the range of 20 to 250 µM.

On to `Cc1[nH]c2c(-c3ccccc3)c(C(F)(F)F)nn2c(=O)c1-c1nnc(C(=N)N)o1` [Compound D1074, 5-(5-methyl-7-oxo-3-phenyl-2-(trifluoromethyl)-4,7-dihydropyrazolo[1,5-a]pyrimidin-6-yl)-1,3,4-oxadiazole-2-carboximidamide], for which the IC50 is below 20 µM.

In the case of `Cc1[nH]c2c(-c3ccccc3)c(C(F)(F)F)nn2c(=O)c1-c1nnc(C(N)=O)o1` [Compound D1066, 5-(5-methyl-7-oxo-3-phenyl-2-(trifluoromethyl)-4,7-dihydropyrazolo[1,5-a]pyrimidin-6-yl)-1,3,4-oxadiazole-2-carboxamide], the half-maximal inhibitory concentration (IC50) was below 20 µM.

Take `COc1cccc(NC(=O)c2c(C)[nH]c3c(-c4ccccc4)c(C4CC4)nn3c2=O)c1` [Compound A1123, 2-cyclopropyl-N-(3-methoxyphenyl)-5-methyl-7-oxo-3-phenyl-4,7-dihydropyrazolo[1,5-a]pyrimidine-6-carboxamide]: the IC50 was above 250 µM.

Take `Cc1[nH]c2c(-c3ccccc3)c(C(F)(F)F)nn2c(=O)c1C(=O)NC1CCCC1` [Compound A1008, N-cyclopentyl-5-methyl-7-oxo-3-phenyl-2-(trifluoromethyl)-4,7-dihydropyrazolo[1,5-a]pyrimidine-6-carboxamide]: the IC50 lay within 20 to 250 µM.

As for `Cc1[nH]c2c(-c3ccccc3)c(C(F)(F)F)nn2c(=O)c1C(=O)NC1CCOCC1` [Compound A1025, 5-methyl-7-oxo-3-phenyl-N-(tetrahydro-2H-pyran-4-yl)-2-(trifluoromethyl)-4,7-dihydropyrazolo[1,5-a]pyrimidine-6-carboxamide], the IC50 was 20 to 250 µM.

`Cc1[nH]c2c(-c3ccccc3)c(C(F)(F)F)nn2c(=O)c1-c1ccncc1` [Compound C1001, 5-methyl-3-phenyl-6-(pyridin-4-yl)-2-(trifluoromethyl)pyrazolo[1,5-a]pyrimidin-7(4H)-one]: the IC50 is 20 to 250 µM.

As for `COC1CCN(c2nnc(-c3c(C)[nH]c4c(-c5ccccc5)c(C(F)(F)F)nn4c3=O)o2)C1` (stereo not shown) [Compound D1037, 6-(5-(3-methoxypyrrolidin-1-yl)-1,3,4-oxadiazol-2-yl)-5-methyl-3-phenyl-2-(trifluoromethyl)pyrazolo[1,5-a]pyrimidin-7(4H)-one], the IC50 was below 20 µM.

Consider `Cc1[nH]c2c(-c3ccccc3)c(C(F)(F)F)nn2c(=O)c1Cc1nnc(C2CCCCC2)o1` [Compound D1035, 6-((5-cyclohexyl-1,3,4-oxadiazol-2-yl)methyl)-5-methyl-3-phenyl-2-(trifluoromethyl)pyrazolo[1,5-a]pyrimidin-7(4H)-one], for which the IC50 was in the range of 20 to 250 µM.

`Cc1[nH]c2c(-c3ccccc3)c(C(F)(F)F)nn2c(=O)c1-c1nnc(N2CCS(=O)(=O)CC2)o1` [Compound D1068, 6-(5-(1,1-dioxidothiomorpholino)-1,3,4-oxadiazol-2-yl)-5-methyl-3-phenyl-2-(trifluoromethyl)pyrazolo[1,5-a]pyrimidin-7(4H)-one]: the IC50 lay within 20 to 250 µM.

Turning to `Cc1[nH]c2c(C3CCCC3)c(C(F)(F)F)nn2c(=O)c1Cc1ccccc1` [Compound C1267, 6-benzyl-3-cyclopentyl-5-methyl-2-(trifluoromethyl)pyrazolo[1,5-a]pyrimidin-7(4H)-one], the IC50 is above 250 µM.

For `COc1cccc(N(C)C(=O)c2c(C)[nH]c3c(-c4ccccc4)c(C(F)(F)F)nn3c2=O)c1` [Compound A1114, N-(3-methoxyphenyl)-N,5-dimethyl-7-oxo-3-phenyl-2-(trifluoromethyl)-4,7-dihydropyrazolo[1,5-a]pyrimidine-6-carboxamide], the IC50 was above 250 µM.

Regarding `COc1cccc2oc(-c3c(C)[nH]c4c(-c5cccc(C)c5)c(C(F)(F)F)nn4c3=O)nc12` [Compound C1172, 6-(4-methoxybenzo[d]oxazol-2-yl)-5-methyl-3-(m-tolyl)-2-(trifluoromethyl)pyrazolo[1,5-a]pyrimidin-7(4H)-one], the IC50 was below 20 µM.

`Cc1[nH]c2c(-c3ccccc3)c(C(F)(F)F)nn2c(=O)c1N1Cc2ccc(N)cc2C1=O` [Compound C1217, 6-(6-amino-1-oxoisoindolin-2-yl)-5-methyl-3-phenyl-2-(trifluoromethyl)pyrazolo[1,5-a]pyrimidin-7(4H)-one]: the IC50 lay within 20 to 250 µM.

A word on the IC50: it is the concentration needed to halve the response being measured.
